# Patent US20260250290A1 (BRISTOL-MYERS SQUIBB COMPANY, priority 2023, published 2026)
# pIC50: −log10 of the molar value. Structures can show the parent of a compound that is named as a salt.
# Target: T1, full length SGK1 (Homo sapiens, UniProt O00141)
# T1 construct: 125 μM full length SGK1 (Life Technologies Part #PR7358A); purchased Life Technologies PR7358A
# T1 sequence (O00141 1-431): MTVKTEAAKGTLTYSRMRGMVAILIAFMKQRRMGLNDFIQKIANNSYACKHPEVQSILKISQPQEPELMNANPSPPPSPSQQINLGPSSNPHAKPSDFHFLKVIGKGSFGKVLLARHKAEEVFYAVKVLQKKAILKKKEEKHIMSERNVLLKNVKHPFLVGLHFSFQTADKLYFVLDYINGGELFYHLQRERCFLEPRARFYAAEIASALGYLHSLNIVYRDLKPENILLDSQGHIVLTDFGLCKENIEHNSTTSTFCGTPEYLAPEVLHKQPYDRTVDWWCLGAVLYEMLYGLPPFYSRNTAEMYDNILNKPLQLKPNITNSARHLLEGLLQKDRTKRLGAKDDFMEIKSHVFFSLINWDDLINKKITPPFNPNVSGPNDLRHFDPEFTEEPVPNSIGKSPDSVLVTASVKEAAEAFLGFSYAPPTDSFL
# Assay: SGK1 inhibition Assay A (Caliper LabChip electrophoretic separation of fluorescent peptide substrate and phosphorylated product)
# Type: biochemical
# Conditions: Assay A; 20 μM ATP, 40 min incubation; read-out: SGK1 IC50
row,SMILES,pIC50
1,"Cc1ccc(C(=O)N[C@@H]2CCCN(c3c(Cl)c(-c4ccc(S(C)(=O)=O)cc4)n4ncnc(N)c34)C2)s1 [Example 195, N-[(3R)-1-[4-amino-6-chloro-7-(4-methanesulfonylphenyl)pyrrolo[2,1-f][1,2,4]triazin-5-yl]piperidin-3-yl]-5-methylthiophene-2-carboxamide]",6.97
2,"CS(=O)(=O)c1ccc(-c2c(Cl)c(N3CCC[C@@H](NC(=O)c4ccncc4)C3)c3c(N)ncnn23)cc1 [Example 196, N-[(3R)-1-[4-amino-6-chloro-7-(4-methanesulfonylphenyl)pyrrolo[2,1-f][1,2,4]triazin-5-yl]piperidin-3-yl]pyridine-4-carboxamide]",6.65
3,"Cc1ccc(C(=O)N[C@@H]2CCCN(c3c(C#N)c(-c4ccc(S(C)(=O)=O)cc4)n4ncnc(N)c34)C2)s1 [Example 197, N-[(3R)-1-[4-amino-6-cyano-7-(4-methanesulfonylphenyl)pyrrolo[2,1-f][1,2,4]triazin-5-yl]piperidin-3-yl]-5-methylthiophene-2-carboxamide]",7.52
4,"Cc1cc(N2CCOCC2)c(C(=O)N[C@@H]2CCCN(c3cc(-c4ccnc(F)c4)n4ncnc(N)c34)C2)s1 [Example 198, (R)—N-(1-(4-amino-7-(2-fluoropyridin-4-yl)pyrrolo[2,1-f][1,2,4]triazin-5-yl)piperidin-3-yl)-5-methyl-3-morpholinothiophene-2-carboxamide, 2 TFA]",8.70
5,"Cc1cc(N2CCN(C)CC2)c(C(=O)N[C@@H]2CCCN(c3cc(-c4ccnc(F)c4)n4ncnc(N)c34)C2)s1 [Example 199, (R)—N-(1-(4-amino-7-(2-fluoropyridin-4-yl)pyrrolo[2,1-f][1,2,4]triazin-5-yl)piperidin-3-yl)-5-methyl-3-(4-methylpiperazin-1-yl)thiophene-2-carboxamide, 3 TFA]",8.70
6,"Cc1cc(CN2CCN(C)CC2)c(C(=O)N[C@@H]2CCCN(c3cc(-c4ccnc(F)c4)n4ncnc(N)c34)C2)s1 [Example 200, (R)—N-(1-(4-amino-7-(2-fluoropyridin-4-yl)pyrrolo[2,1-f][1,2,4]triazin-5-yl)piperidin-3-yl)-5-methyl-3-((4-methylpiperazin-1-yl)methyl)thiophene-2-carboxamide]",7.82
7,"Cc1cc(COCCN2CCOCC2)c(C(=O)N[C@@H]2CCCN(c3cc(-c4ccnc(F)c4)n4ncnc(N)c34)C2)s1 [Example 201, (R)—N-(1-(4-amino-7-(2-fluoropyridin-4-yl)pyrrolo[2,1-f][1,2,4]triazin-5-yl)piperidin-3-yl)-5-methyl-3-((2-morpholinoethoxy)methyl)thiophene-2-carboxamide, 2 TFA]",8.52
8,"Cc1cc(CO)c(C(=O)N[C@@H]2CCCN(c3cc(-c4ccnc(F)c4)n4ncnc(N)c34)C2)s1 [Example 202, (R)—N-(1-(4-amino-7-(2-fluoropyridin-4-yl)pyrrolo[2,1-f][1,2,4]triazin-5-yl)piperidin-3-yl)-3-(hydroxymethyl)-5-methylthiophene-2-carboxamide]",7.92
9,"Cn1cc(-c2cc(N3CCC[C@@H](NC(=O)c4ccc(Cl)s4)C3)c3c(N)ncnn23)c(C2CC2)n1 [Example 203, (R)—N-(1-(4-amino-7-(3-cyclopropyl-1-methyl-1H-pyrazol-4-yl)pyrrolo[2,1-f][1,2,4]triazin-5-yl)piperidin-3-yl)-5-chlorothiophene-2-carboxamide, TFA]",7.72
10,"CC(=O)c1ccc(-c2cc(N3CCC[C@@H](NC(=O)c4ccc(Cl)s4)C3)c3c(N)ncnn23)cc1 [Example 204, (R)-N-(1-(7-(4-acetylphenyl)-4-aminopyrrolo[2,1-f][1,2,4]triazin-5-yl)piperidin-3-yl)-5-chlorothiophene-2-carboxamide, TFA]",8.30
11,"Nc1ncnn2c(-c3ccnc4[nH]ccc34)cc(N3CCC[C@@H](NC(=O)c4ccc(Cl)s4)C3)c12 [Example 205, (R)-N-(1-(4-amino-7-(1H-pyrrolo[2,3-b]pyridin-4-yl)pyrrolo[2,1-f][1,2,4]triazin-5-yl)piperidin-3-yl)-5-chlorothiophene-2-carboxamide, TFA]",8.15
12,"Nc1ncnn2c(-c3cc(F)c(O)c(F)c3)cc(N3CCC[C@@H](NC(=O)c4ccc(Cl)s4)C3)c12 [Example 206, (R)-N-(1-(4-amino-7-(3,5-difluoro-4-hydroxyphenyl)pyrrolo [2,1-f][1,2,4]triazin-5-yl)piperidin-3-yl)-5-chlorothiophene-2-carboxamide]",7.92
13,"COc1cc(-c2cc(N3CCC[C@@H](NC(=O)c4ccc(Cl)s4)C3)c3c(N)ncnn23)ccc1C(N)=O [Example 207, (R)-N-(1-(4-amino-7-(4-carbamoyl-3-methoxyphenyl)pyrrolo [2,1-f][1,2,4]triazin-5-yl)piperidin-3-yl)-5-chlorothiophene-2-carboxamide]",8.40
14,"CC(=O)Nc1cccc(-c2cc(N3CCC[C@@H](NC(=O)c4ccc(Cl)s4)C3)c3c(N)ncnn23)c1 [Example 208, (R)-N-(1-(7-(3-acetamidophenyl)-4-aminopyrrolo[2,1-f][1,2,4]triazin-5-yl)piperidin-3-yl)-5-chlorothiophene-2-carboxamide]",7.70
15,"Cn1nccc1-c1cc(N2CCC[C@@H](NC(=O)c3ccc(Cl)s3)C2)c2c(N)ncnn12 [Example 210, (R)-N-(1-(4-amino-7-(1-methyl-1H-pyrazol-5-yl)pyrrolo[2,1-f][1,2,4]triazin-5-yl)piperidin-3-yl)-5-chlorothiophene-2-carboxamide, TFA]",8.05

# The next lines start with the values.
row,pIC50,SMILES
1,8.52,"Nc1ncnn2c(-c3ccn[nH]3)cc(N3CCC[C@@H](NC(=O)c4ccc(Cl)s4)C3)c12 [Example 211, (R)-N-(1-(4-amino-7-(1H-pyrazol-5-yl)pyrrolo[2,1-f][1,2,4]triazin-5-yl)piperidin-3-yl)-5-chlorothiophene-2-carboxamide]"
2,8.22,"N#Cc1ccc(-c2cc(N3CCC[C@@H](NC(=O)c4ccc(Cl)s4)C3)c3c(N)ncnn23)s1 [Example 212, (R)-N-(1-(4-amino-7-(5-cyanothiophen-2-yl)pyrrolo[2,1-f][1,2,4]triazin-5-yl)piperidin-3-yl)-5-chlorothiophene-2-carboxamide, TFA]"
3,8.30,"COc1cnccc1-c1cc(N2CCC[C@@H](NC(=O)c3ccc(Cl)s3)C2)c2c(N)ncnn12 [Example 213, (R)-N-(1-(4-amino-7-(3-methoxypyridin-4-yl)pyrrolo[2,1-f][1,2,4]triazin-5-yl)piperidin-3-yl)-5-chlorothiophene-2-carboxamide, TFA]"
4,7.96,"Nc1ncnn2c(-c3cccc(CO)c3)cc(N3CCC[C@@H](NC(=O)c4ccc(Cl)s4)C3)c12 [Example 214, (R)-N-(1-(4-amino-7-(3-(hydroxymethyl)phenyl)pyrrolo[2,1-f][1,2,4]triazin-5-yl)piperidin-3-yl)-5-chlorothiophene-2-carboxamide]"
5,8.22,"COc1cc(-c2cc(N3CCC[C@@H](NC(=O)c4ccc(Cl)s4)C3)c3c(N)ncnn23)ccn1 [Example 215, (R)-N-(1-(4-amino-7-(2-methoxypyridin-4-yl)pyrrolo[2,1-f][1,2,4]triazin-5-yl)piperidin-3-yl)-5-chlorothiophene-2-carboxamide, TFA]"
6,7.59,"Cn1cc(-c2cc(N3CCC[C@@H](NC(=O)c4ccc(Cl)s4)C3)c3c(N)ncnn23)cn1 [Example 216, (R)-N-(1-(4-amino-7-(1-methyl-1H-pyrazol-4-yl)pyrrolo[2,1-f][1,2,4]triazin-5-yl)piperidin-3-yl)-5-chlorothiophene-2-carboxamide, TFA]"
7,7.21,"Cc1nn(C)cc1-c1cc(N2CCC[C@@H](NC(=O)c3ccc(Cl)s3)C2)c2c(N)ncnn12 [Example 217, (R)-N-(1-(4-amino-7-(1,3-dimethyl-1H-pyrazol-4-yl)pyrrolo[2,1-f][1,2,4]triazin-5-yl)piperidin-3-yl)-5-chlorothiophene-2-carboxamide]"
8,6.63,"CC(C)(O)c1ccc(-c2cc(N3CCC[C@@H](NC(=O)c4ccc(Cl)s4)C3)c3c(N)ncnn23)cc1 [Example 218, (R)-N-(1-(4-amino-7-(4-(2-hydroxypropan-2-yl)phenyl)pyrrolo[2,1-f][1,2,4]triazin-5-yl)piperidin-3-yl)-5-chlorothiophene-2-carboxamide, TFA]"
9,7.17,"Nc1ncnn2c(-c3ccc4c(c3)C(=O)NC4)cc(N3CCC[C@@H](NC(=O)c4ccc(Cl)s4)C3)c12 [Example 219, (R)-N-(1-(4-amino-7-(3-oxoisoindolin-5-yl)pyrrolo[2,1-f][1,2,4]triazin-5-yl)piperidin-3-yl)-5-chlorothiophene-2-carboxamide]"
10,8.15,"Nc1ncnn2c(-c3ccnc(C(F)(F)F)c3)cc(N3CCC[C@@H](NC(=O)c4ccc(Cl)s4)C3)c12 [Example 220, (R)-N-(1-(4-amino-7-(2-(trifluoromethyl)pyridin-4-yl)pyrrolo[2,1-f][1,2,4]triazin-5-yl)piperidin-3-yl)-5-chlorothiophene-2-carboxamide]"
11,6.10,Nc1ncnn2c(-c3ccc(CN4CCOCC4)cc3)cc(N3CCC[C@@H](NC(=O)c4ccc(Cl)s4)C3)c12 [Example 221]
12,7.37,"COc1cc(-c2cc(N3CCC[C@@H](NC(=O)c4ccc(Cl)s4)C3)c3c(N)ncnn23)ccc1C#N [Example 222, (R)-N-(1-(4-amino-7-(4-cyano-3-methoxyphenyl)pyrrolo [2,1-f][1,2,4]triazin-5-yl)piperidin-3-yl)-5-chlorothiophene-2-carboxamide, TFA]"
